Drawing on the NIST ThermoML archive (doi:10.1021/je034127q), this text covers Critical pressure and Critical temperature for 3 molecules.

SMILES strings stand for the structures. ± gives the expanded uncertainty stated by the source.

For the data set the following is noted: Liquid.
Take `O=C=O` [carbon dioxide]: the Critical pressure turned out to be 7420 ± 250 kPa and the Critical temperature is listed as 304.5 ± 2.5 K.

In the case of `CCCCCC` [hexane], the Critical pressure is listed as 3020 ± 250 kPa and the Critical temperature is reported as 507.4 ± 2.5 K.

With `CO` [methanol], the Critical pressure is 8120 ± 250 kPa and the Critical temperature came to 512.6 ± 2.5 K.
